Like-named read-outs stand apart in the source and are kept apart here.
Assays:
CYP3A4/5 = experiment: In-vitro CYP inhibition study, CYP3A4/5; format: in vitro ADME; conditions: both sexes, human, human liver microsomes, pH 7.4, probe Midazolam (3 μM), substrate Midazolam (3 μM)
Experimental: (§1) Incubations were conducted using a cocktail of seven prototypical CYP substrates to ascertain the potential of each test article to inhibit the metabolism of concomitantly administered drugs. A mixed-gender pool of 200 human liver microsomal samples was used for this study. Incubations were conducted at approximately 37° C. in 200 μL incubation mixtures (pH 7.4) containing water, potassium phosphate buffer (50 mM), MgCl2 (3 mM), EDTA (1 mM), an NADPH regenerating system (NADP [1 mM], glucose 6 phosphate [5 mM], glucose 6 phosphate dehydrogenase [1 Unit/mL]), and probe substrate (i.e., a seven substrate cocktail) at the final concentrations indicated in Table 9. Reactions were initiated by the addition of NADPH-regenerating system and were automatically terminated at approximately 5 minutes by the addition of internal standard mixed in stop reagent, acetonitrile. The samples were centrifuged at 920×g for 10 minutes at 10° C. The supernatant fractions were analyzed by LC-MS/MS. To examine its ability to act as a time-dependent inhibitor of CYP enzymes, each test article (at the same concentrations used to evaluate direct inhibition, (i.e. 0, 0.02, 0.06, 0.2, 0.6, 2, 6, 20 μM) was pre-incubated at 37±2° C. with NADPH-fortified human liver microsomes for approximately 30 minutes. The pre-incubations were initiated by the addition of NADPH-regenerating system. After 30 min, probe substrate incubations were initiated by the addition of probe substrate cocktail. Incubations were terminated and samples were analyzed by LC-MS/MS. When inhibition was observed, the data were processed with a LIMS for the determination of IC50 values by utilizing the Levenberg-Marquardt algorithm to perform non-linear regression fitting of the data to the following 4-parameter sigmoidal-logistic IC50 equation:
(§2) As percent of control values are utilized, the minimum value (Min) is set to zero and the maximum value (Max) is set to 100 (or other values, as appropriate). The LIMS calculates an IC50 value only when it lies within the concentration range of the inhibitor studied. Therefore, when an IC50 value falls outside the concentration range studied, the IC50 values are reported to be greater than the highest concentration of the test article evaluated.

CYP3A4 mRNA expression = conditions: human, hepatocytes, 24 h
Experimental: (§3) A single preparation of characterized cryopreserved human hepatocytes isolated from non-transplantable human livers was treated in this study. Triplicate wells for each of the cultures were treated in 48-well plates with supplemented MCM (37±2° C.) containing 0.1% v/v DMSO (solvent control), one of three concentrations of each test article (1, 10 and 20 μM) or positive control CYP enzyme inducers omeprazole (50 μM), phenobarbital (1000 μM) or rifampin (20 μM). The cultures were incubated in a humidified culture chamber (37±2° C. at 95% relative humidity, 95/5% air/CO2). Approximately 24 h after treatment, hepatocytes were lysed in Buffer RLT reagent containing β-mercaptoethanol (100:1). The medium was aspirated, and Buffer RLT was added to each well. The cell lysates were prepared by repeated pipetting and shaking. Total RNA was isolated using the RNeasy Mini Kit. RNA quality and concentration were determined by measuring absorbance at 260 and 280 nm on a plate reader. Single-stranded cDNA was prepared from RNA with the RT Master Mix. The RT Master Mix comprises 10×RT buffer, 25× deoxyNTPs, 10× Random primers, RNase Inhibitor (20 U/μL), MultiScribe reverse transcriptase (50 U/μL) and RNase-free water. The RT Master Mix was added to each RNA sample to complete the components of the reaction. No template controls (NTCs) were included in the analysis. For the NTC reactions, RNase-free water was added in place of the RNA sample. The prepared cDNA samples were stored at −20±5° C. following analysis by qRT-PCR. Each PCR was performed in quadruplicate. A Primer Mix was prepared for each Gene Expression assay. A typical Primer Mix contained TaqMan Fast Advanced Master Mix (1×), Gene Expression Assay (1×, 900 nM forward and reverse primers) and RNase-free water. The Reaction Mix was prepared by adding the Primer Mix to cDNA. A percentage of samples (no less than 10%) included NAC (no amplification control) samples. […] Reactions were analyzed on a PCR sequence detection system. The relative quantity of the target cDNA compared with that of the control cDNA (GAPDH) was determined by the ΔΔCt method. Relative quantitation measures the change in mRNA expression in a test sample relative to that in a control sample (e.g., DMSO). This method assumes that the efficiency of the target amplification and the efficiency of the endogenous control amplification are approximately equal.

CYP2B6 mRNA expression = experiment: In-vitro CYP induction study, CYP2B6 mRNA in cultured human hepatocytes; conditions: 20 μM, approximately 24 h
Experimental: as §3

CYP2B6 = molecular target: T1, CYP2B6 (Homo sapiens, UniProt P20813); experiment: In-vitro CYP inhibition study, CYP2B6; format: in vitro ADME; conditions: human liver microsomes, substrate Bupropion (90 μM)
T1 construct: from tissue; host or cells: human liver microsomes, mixed-gender pool of 200
T1 sequence (P20813 1-491): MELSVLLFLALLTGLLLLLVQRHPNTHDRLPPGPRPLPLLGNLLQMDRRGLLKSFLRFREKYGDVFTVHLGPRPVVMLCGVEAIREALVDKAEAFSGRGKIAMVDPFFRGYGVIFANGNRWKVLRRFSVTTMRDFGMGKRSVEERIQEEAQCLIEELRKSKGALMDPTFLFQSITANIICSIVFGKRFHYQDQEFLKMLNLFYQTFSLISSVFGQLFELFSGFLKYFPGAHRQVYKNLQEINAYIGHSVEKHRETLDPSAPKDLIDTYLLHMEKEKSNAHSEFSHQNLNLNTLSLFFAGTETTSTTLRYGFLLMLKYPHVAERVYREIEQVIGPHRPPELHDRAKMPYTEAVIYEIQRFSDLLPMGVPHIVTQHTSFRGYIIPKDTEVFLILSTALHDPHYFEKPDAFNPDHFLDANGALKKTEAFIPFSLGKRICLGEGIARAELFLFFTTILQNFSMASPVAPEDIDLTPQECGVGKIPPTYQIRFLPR
Experimental: as §1, §2

[1] = tested on: phospho-ERK1/2 to total ERK1/2 in A375 cells; experiment: A375 pERK/ERK dose response study (MSD); format: cell-based; conditions: Homo sapiens, A-375, ratio of phospho-ERK1/2 to total ERK1/2
Experimental: A375 pERK/ERK Dose Response Study:
Briefly, A375 cells were plated at 30,000 cells/well in 2×96 well plates, allowed to recover overnight, washed and fed fresh media the next day then treated with a dose response of the selected compounds. Following the determined pretreatment time with the compounds at 37° C./5% CO2, the media was aspirated, and cells lysed with cold, complete MESO Scale Discovery (MSD) lysis buffer. pERK and total ERK1/2 levels were measured using MESO Scale Discover Phospho(Thr202/Tyr204; Thr185/Tyr187)/Total ERK1/2 kits. The protocol and all reagents were provided in the kit. All wells were blocked with 150 μl Blocking Solution for one hour. […] of lysis buffer was added per well and incubated overnight at 4° C. Following the overnight incubation, the wells were washed three times with Tris Wash buffer, then […] of 1× Detection Antibody was added per well and incubated at room temperature for one hour with vigorous shaking. All wells were then washed three times with Tris Wash Buffer before 150 μl of 1× Read Buffer was added per well and the plates read using the MSD Sector Imager. Data were calculated as a ratio of phospho-ERK1/2 to total ERK1/2 to allow for normalization of the samples.

CYP2C8 = molecular target: T2, CYP2C8 (Homo sapiens, UniProt P10632); experiment: In-vitro CYP inhibition study, CYP2C8; format: in vitro ADME; conditions: human liver microsomes, substrate Paclitaxel (5 μM)
T2 construct: from tissue; host or cells: human liver microsomes, mixed-gender pool of 200
T2 sequence (P10632 1-490): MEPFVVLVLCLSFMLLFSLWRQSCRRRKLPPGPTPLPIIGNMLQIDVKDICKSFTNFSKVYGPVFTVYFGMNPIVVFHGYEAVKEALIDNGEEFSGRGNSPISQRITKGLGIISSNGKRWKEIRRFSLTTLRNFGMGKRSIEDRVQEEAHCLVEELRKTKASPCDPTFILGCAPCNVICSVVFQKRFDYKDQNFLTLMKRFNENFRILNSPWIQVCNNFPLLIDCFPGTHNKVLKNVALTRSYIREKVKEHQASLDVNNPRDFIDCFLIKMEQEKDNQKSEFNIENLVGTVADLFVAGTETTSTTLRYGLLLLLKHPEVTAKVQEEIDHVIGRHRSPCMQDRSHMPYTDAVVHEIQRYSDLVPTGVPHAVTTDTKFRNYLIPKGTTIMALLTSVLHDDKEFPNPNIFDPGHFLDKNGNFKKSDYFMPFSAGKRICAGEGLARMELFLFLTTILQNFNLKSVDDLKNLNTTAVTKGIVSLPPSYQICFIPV
Experimental: as §1, §2

CYP1A2 mRNA expression = experiment: In-vitro CYP induction study, CYP1A2 mRNA in cultured human hepatocytes; conditions: approximately 24 h
Experimental: as §3

Row | SMILES | IC50 at 5 min (CYP3A4/5; preincubation 0 min) | IC50 at 5 min (CYP3A4/5; preincubation 30 min) | Fold Change in mRNA Expression of CYP3A4 (CYP3A4 mRNA expression; 1 μM) | Fold Change in mRNA Expression of CYP3A4 (CYP3A4 mRNA expression; 10 μM) | Fold Change in mRNA Expression of CYP2B6 (CYP2B6 mRNA expression) | IC50 (CYP2B6; preincubation 0 min) | IC50 (CYP2B6; preincubation 30 min) | IC50 [1] | IC50 (CYP2C8; preincubation 0 min) | IC50 (CYP2C8; preincubation 30 min) | Fold Change in mRNA Expression of CYP1A2 (CYP1A2 mRNA expression; 10 μM) | Fold Change in mRNA Expression of CYP1A2 (CYP1A2 mRNA expression; 20 μM) | Fold Change in mRNA Expression of CYP1A2 (CYP1A2 mRNA expression; 1 μM)
1 | CC(C)Nc1cc(-c2c[nH]c(C(=O)N[C@H](CO)c3cccc(Cl)c3)c2)c(Cl)cn1 [Ulixertinib, reference compound] | > 20 µM | 14 µM | 1.52 fold | 6.84 fold | 2.43 fold | 11 µM | 16 µM | 0.058 µM | 8.5 µM | 9.2 µM | 6.63 fold | – | –
2 | [2H]C([2H])([2H])C(Nc1cc(-c2c[nH]c(C(=O)N[C@H](CO)c3cccc(Cl)c3)c2)c(Cl)cn1)C([2H])([2H])[2H] [Formula 19, 4-(5-chloro-2-((propan-2-yl-1,1,1,3,3,3-d6)amino)pyridin-4-yl)-N-(1-(3-chiorophenyl)-2-hydroxyethyl)-1H-pyrrole-2-carboxamide] | > 20 µM | 13 µM | 2.06 fold | 9.42 fold | 2.44 fold | 14 µM | 16 µM | – | 10 µM | 12 µM | 12.1 fold | – | –
3 | [2H]C([2H])([2H])C([2H])(Nc1cc(-c2c[nH]c(C(=O)N[C@H](CO)c3cccc(Cl)c3)c2)c(Cl)cn1)C([2H])([2H])[2H] [Formula 18, 4-(5-chloro-2-((propan-2-yl-d7)amino)pyridin-4-yl)-N-(1-(3-chlorophenyl)-2-hydroxyethyl)-1H-pyrrole-2-carboxamide] | > 20 µM | 14 µM | 1.83 fold | 5.39 fold | 2.54 fold | 12 µM | 16 µM | 0.07 µM | 9.6 µM | 11 µM | – | 7.56 fold | –
4 | Cl.[2H]C(C)(C)Nc1cc(-c2c[nH]c(C(=O)N[C@H](CO)c3cccc(Cl)c3)c2)c(Cl)cn1 [Formula 21A] | > 20 µM | 17 µM | 1.39 fold | 5.29 fold | 2.22 fold | 17 µM | 19 µM | – | 19 µM | 19 µM | 8.51 fold | – | 2.22 fold
